According to patent publication US20060216791A1, “Method for synthesizing amino-acid-selectively labeled protein” (Mitsubishi Chemical Corporation, priority 2003, published 2006):

Assays:
Type in all cases: biochemical
[1] = test system: cell-free protein synthetic system containing a wheat germ extract; experiment: Amount of GFP synthesized by wheat germ cell-free protein synthesis (GFP fluorescence intensity)
[2] = test system: glutamine synthetase; experiment: Metabolism of glutamic acid to glutamine in wheat germ cell-free system, 1H-15N HSQC of synthesized yeast ubiquitin
Experimental: (§1) The mixed solution was allowed to react for 2 days with a dialysis buffer solution, wherein only one type of amino acid had been labeled with ^15N (manufactured by Cambridge Isotope Laboratories) and 19 types of remaining amino acids were ordinary amino acids. Thereafter, the dialysis buffer solution was exchanged with a fresh buffer solution, and the protein synthesis reaction was carried out further for 2 days. Thereafter, 1 ml of the reaction solution was concentrated to 250 μl using a Centricon-3 ultrafiltration concentration device manufactured by Millipore. […] The concentrated solution was passed through a Micro Spin G-25 gel filtration column manufactured by Amersham that had previously been equilibrated with a buffer solution used for NMR measurement (50 mM sodium phosphate, pH 6.5, 100 mM NaCl), so that the buffer solution was exchanged with a buffer solution used for the measurement, thereby preparing an NMR measurement sample.
(§2) For the NMR measurement, an Avance-500 spectrometer manufactured by Bruker was used. In order to maintain the stability of a magnetic field, 10% D2O used for NMR lock was added to the measurement sample, and thereafter, ^1H-^15N HSQC measurement was carried out. The measurement temperature was set at 30° C.
(§3) Subsequently, the concentration of aminooxyacetic acid in a translation solution and an external dialysis solution was set at 1 mM. The following 3 types of substrate amino acids were prepared: (1) only alanine was labeled with ^15N and 19 types of remaining amino acids were ordinary amino acids; (2) only aspartic acid was labeled with ^15N and 19 types of remaining amino acids were ordinary amino acids; and (3) only glutamic acid was labeled with ^15N and 19 types of remaining amino acids were ordinary amino acids. Using these substrate amino acids, yeast ubiquitins were synthesized by the same method as described in Example 1, and the ^1H-^15N HSQC was measured. […] Moreover, the aforementioned experiment was carried out under conditions whereby the concentration of aminooxyacetic acid was set at 0.1 μM, 1 μM, 10 μM, 100 μM, and 1 mM.
(§4) Subsequently, the concentration of aminooxyacetic acid was set at 1 mM and the concentration of L-methionine sulfoximine was set at 0.1 mM in a translation solution and an external dialysis solution. Substrate amino acid was prepared such that only glutamic acid was labeled with ^15N and 19 types of remaining amino acids were ordinary amino acids. Using such substrate amino acid, yeast ubiquitin was synthesized by the same method as described in examples, and the ^1H-^15N HSQC was measured. […] Moreover, the aforementioned experiment was carried out under conditions whereby the concentration of L-methionine sulfoximine was set at 0.1 μM, 1 μM, 10 μM, and 100 μM.

[3] = test system: transaminase; experiment: Amino acid metabolism by transaminase in wheat germ cell-free system, 1H-15N HSQC of synthesized yeast ubiquitin; conditions: for metabolism of glutamic acid to aspartic acid: only glutamic acid labeled with 15N
Experimental: as §1, §2, §3, §4

Row | Structure (SMILES) | amount of GFP synthesized ([1]; L-methionine sulfoximine 20 mM or less in external dialysis solution and reaction solution, FIG. 7) | metabolism of glutamic acid to glutamine ([2]; 0.1 mM L-methionine sulfoximine plus 1 mM aminooxyacetic acid, only glutamic acid labeled with 15N, FIG. 8) | inhibition of the metabolism ([2]; L-methionine sulfoximine 10 μM) | inhibition of the metabolism ([2]; L-methionine sulfoximine 100 μM or more) | amount of GFP synthesized ([1]; aminooxyacetic acid 4 mM or less in external dialysis solution and reaction solution, FIG. 4) | synthesized amount of GFP maintained ([1]; aminooxyacetic acid 10 mM, FIG. 4) | activity of metabolizing glutamic acid to glutamine ([2]; 1 mM aminooxyacetic acid, only glutamic acid labeled with 15N, FIG. 6) | metabolism of glutamic acid to aspartic acid ([3]; 1 mM aminooxyacetic acid plus 0.1 mM L-methionine sulfoximine, FIG. 8) | HSQC signals observed (selective labeling) ([3]; 1 mM aminooxyacetic acid, only alanine labeled with 15N, FIG. 5A) | HSQC signals observed (selective labeling) ([3]; 1 mM aminooxyacetic acid, only aspartic acid labeled with 15N, FIG. 5B) | metabolism of glutamic acid to aspartic acid ([3]; 1 mM aminooxyacetic acid, FIG. 6) | inhibition of the metabolism ([3]; aminooxyacetic acid 10 μM) | inhibition of the metabolism ([3]; aminooxyacetic acid 100 μM or more)
1 | CS(=N)(=O)CC[C@H](N)C(=O)O (stereo partly drawn) [L-methionine sulfoximine] | not reduced | suppressed | two thirds | completely inhibited |  |  |  |  |  |  |  |  | 
2 | NOCC(=O)O [aminooxyacetic acid] |  |  |  |  | not reduced | approximately 70% | has still remained | suppressed | only signal derived from alanine or aspartic acid was observed | only signal derived from alanine or aspartic acid was observed | suppressed | two thirds | completely inhibited
